Test results as given in ChEMBL document CHEMBL2321830 (J Med Chem, 2013).
Numbering of substitutions follows the chain as printed.

What was measured:
[1] = molecular target: T1, Aldo-keto reductase family 1 member C3 (Homo sapiens, UniProt P42330); assay: Inhibition of human recombinant AKR1C3-mediated NADP+-dependent oxidation of S-(+)-1,2,3,4-tetrahydro-1-naphthol
T1 sequence (P42330 whole entry): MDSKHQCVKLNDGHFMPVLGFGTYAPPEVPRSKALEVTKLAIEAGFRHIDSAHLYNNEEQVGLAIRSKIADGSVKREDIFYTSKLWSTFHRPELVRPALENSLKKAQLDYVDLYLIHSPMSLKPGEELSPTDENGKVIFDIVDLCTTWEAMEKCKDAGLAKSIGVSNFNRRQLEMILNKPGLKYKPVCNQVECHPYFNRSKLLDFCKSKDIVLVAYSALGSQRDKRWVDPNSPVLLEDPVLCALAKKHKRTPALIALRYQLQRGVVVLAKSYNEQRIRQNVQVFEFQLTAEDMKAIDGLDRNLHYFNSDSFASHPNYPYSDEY

[2] = molecular target: T2, Aldo-keto reductase family 1 member C2 (Homo sapiens, UniProt P52895); assay: Inhibition of human recombinant AKR1C2-mediated NADP+-dependent oxidation of S-(+)-1,2,3,4-tetrahydro-1-naphthol
T2 sequence (P52895 whole entry): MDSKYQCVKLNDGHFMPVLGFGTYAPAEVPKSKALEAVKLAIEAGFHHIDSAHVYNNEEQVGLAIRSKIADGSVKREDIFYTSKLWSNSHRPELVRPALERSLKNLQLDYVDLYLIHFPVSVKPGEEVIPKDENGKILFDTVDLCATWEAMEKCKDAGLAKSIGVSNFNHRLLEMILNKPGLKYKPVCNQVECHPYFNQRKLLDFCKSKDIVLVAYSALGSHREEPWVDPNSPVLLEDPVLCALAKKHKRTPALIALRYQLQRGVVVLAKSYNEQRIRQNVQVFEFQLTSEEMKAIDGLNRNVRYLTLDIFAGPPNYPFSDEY

[3] = molecular target: T3, Aldo-keto reductase family 1 member C4 (Homo sapiens, UniProt P17516); assay: Inhibition of human recombinant AKR1C4-mediated NADP+-dependent oxidation of S-(+)-1,2,3,4-tetrahydro-1-naphthol
T3 sequence (P17516 whole entry): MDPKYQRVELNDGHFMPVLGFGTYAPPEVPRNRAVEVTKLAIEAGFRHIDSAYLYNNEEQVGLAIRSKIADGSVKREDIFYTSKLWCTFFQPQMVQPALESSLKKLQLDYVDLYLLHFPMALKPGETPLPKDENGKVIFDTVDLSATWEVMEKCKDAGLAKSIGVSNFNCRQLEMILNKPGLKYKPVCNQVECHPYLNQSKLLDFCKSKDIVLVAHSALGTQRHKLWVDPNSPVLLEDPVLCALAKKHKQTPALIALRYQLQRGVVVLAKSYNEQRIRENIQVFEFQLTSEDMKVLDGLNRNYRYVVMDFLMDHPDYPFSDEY

[4] = molecular target: T4, Aldo-keto reductase family 1 member C1 (Homo sapiens, UniProt Q04828); assay: Inhibition of human recombinant AKR1C1-mediated NADP+-dependent oxidation of S-(+)-1,2,3,4-tetrahydro-1-naphthol
T4 sequence (Q04828 whole entry): T2 sequence (P52895 whole entry) with V38T, H47R, V54L, S87C, M151V, H170R, L172Q

Row | SMILES | IC50 [1] [nM] | IC50 [2] [µM] | IC50 [3] [µM] | IC50 [4] [µM]
1 | COc1ccc2c(c1)c(CC(=O)O)c(C)n2C(=O)c1ccc(F)cc1 | 710 | 61 | – | –
2 | COc1ccc2c(c1)c(CCC(=O)O)c(C)n2C(=O)c1ccc(Cl)cc1 | – | – | > 100 | –
3 | COc1ccc2c(c1)c(CC(=O)O)c(C)n2C(=O)c1ccc(C)cc1 | – | – | > 100 | > 100
4 | COc1ccc2c(c1)c(CC(=O)NS(C)(=O)=O)c(C)n2C(=O)c1ccc(Cl)cc1 | 2240 | 65.4 | – | –
5 | COc1ccc(C(=O)n2c(C)c(CC(=O)O)c3cc(OC)ccc32)cc1 | 140 | 45.1 | – | –
6 | COc1ccc2c(c1)c(CC(=O)O)c(C)n2C(=O)c1ccc(C(F)(F)F)cc1 | – | – | > 100 | > 100
7 | COc1ccc2c(c1)c(CC(=O)O)c(C)n2C(=O)c1cccc(C(F)(F)F)c1 | 2440 | 19.5 | – | –
8 | Cc1c(CC(=O)O)c2cc(F)ccc2n1C(=O)c1cccc(C(F)(F)F)c1 | 2230 | 7.84 | – | –
9 | COC(=O)Cc1c(C)n(C(=O)c2ccc(C)cc2)c2ccc(OC)cc12 | 7540 | 43.6 | – | –
10 | COC(=O)Cc1c(C)n(C(=O)c2ccc(C(F)(F)F)cc2)c2ccc(OC)cc12 | 15700 | > 100 | – | –
11 | COC(=O)Cc1c(C)n(C(=O)c2ccc(OC)cc2)c2ccc(OC)cc12 | 7590 | > 100 | – | –
12 | COc1ccc2c(c1)c(CC(=O)NS(=O)(=O)C(F)(F)F)c(C)n2C(=O)c1ccc(Cl)cc1 | – | – | > 100 | > 100
13 | Cc1c(CCC(=O)O)c2cc(F)ccc2n1C(=O)c1ccc(Cl)cc1 | 290 | 13.5 | – | –
14 | COc1ccc2c(c1)cc(C)n2C(=O)c1ccc(Cl)cc1 | 3560 | 24 | – | –
15 | COC(=O)Cc1cn(C(=O)c2ccc(Cl)cc2)c2ccc(OC)cc12 | 11300 | > 100 | – | –
16 | COc1ccc2c(c1)c(CC(=O)O)cn2C(=O)c1ccc(F)cc1 | 4960 | > 100 | – | –
17 | COc1ccc2c(c1)c(CC(=O)O)cn2C(=O)c1ccc(C(F)(F)F)cc1 | 1080 | > 100 | – | –
18 | COc1ccc2c(c1)c(CC(=O)O)cn2C(=O)c1cccc(C(F)(F)F)c1 | 5210 | 100 | – | –
19 | O=C(O)Cc1cn(C(=O)c2ccc(Cl)cc2)c2ccc(F)cc12 | 500 | 23.3 | – | –
20 | COc1ccc2c(c1)c(CC(=O)NS(C)(=O)=O)cn2C(=O)c1ccc(Cl)cc1 | 12000 | 16.7 | – | –
21 | COc1ccc2c(c1)c(CC(=O)NS(=O)(=O)C(F)(F)F)cn2C(=O)c1ccc(Cl)cc1 | – | – | > 100 | > 100
22 | COc1ccc2c(c1)c(CC(=O)NS(=O)(=O)c1ccc(C)cc1)cn2C(=O)c1ccc(Cl)cc1 | 12400 | 42.7 | – | –
23 | COc1ccc2c(c1)c(CC(=O)NS(=O)(=O)c1ccc3ccccc3c1)cn2C(=O)c1ccc(Cl)cc1 | 1190 | 16.8 | – | –
24 | COc1ccc2c(c1)c(CC(=O)NS(=O)(=O)c1ccccc1C)cn2C(=O)c1ccc(Cl)cc1 | 8820 | 15.3 | – | –
25 | COc1ccc2c(c1)c(CC(=O)NS(=O)(=O)c1ccc(C(F)(F)F)cc1)cn2C(=O)c1ccc(Cl)cc1 | 2070 | 38.2 | – | –
26 | COc1ccc2c(c1)c(CC(=O)NS(=O)(=O)c1ccc(OC(F)(F)F)cc1)cn2C(=O)c1ccc(Cl)cc1 | 2650 | 59.4 | – | –

Row | SMILES | IC50 [1] [nM] | IC50 [2] [µM] | IC50 [3] [µM] | IC50 [4] [µM]
27 | COc1ccc2c(c1)c(CC(=O)NS(=O)(=O)c1ccc(Cl)s1)cn2C(=O)c1ccc(Cl)cc1 | 3730 | 15.1 | – | –
28 | COc1ccc2c(c1)c(CC(=O)NS(=O)(=O)c1ccc(C(C)=O)cc1)cn2C(=O)c1ccc(Cl)cc1 | 2090 | 17.3 | – | –
29 | COc1ccc2c(c1)c(CC(=O)NS(=O)(=O)c1ccc(C(C)C)cc1)cn2C(=O)c1ccc(Cl)cc1 | 6340 | 7.9 | – | –
30 | COc1ccc(S(=O)(=O)NC(=O)Cc2cn(C(=O)c3ccc(Cl)cc3)c3ccc(OC)cc23)cc1 | 5800 | 39.9 | – | –
31 | COc1ccc2c(c1)c(CC(=O)NS(=O)(=O)c1ccc(F)cc1)cn2C(=O)c1ccc(Cl)cc1 | 7860 | 39.9 | – | –
32 | COc1ccc2c(c1)c(CC(=O)NS(=O)(=O)c1ccc(Oc3ccccc3)cc1)cn2C(=O)c1ccc(Cl)cc1 | 2520 | – | – | –
33 | COc1ccc2c(c1)c(CC(=O)NS(=O)(=O)c1ccc(C#N)cc1)cn2C(=O)c1ccc(Cl)cc1 | 1110 | 33 | – | –
34 | COc1ccc2c(c1)c(CC(=O)NS(=O)(=O)c1ccc(Br)cc1)cn2C(=O)c1ccc(Cl)cc1 | 3970 | 39.9 | – | –
35 | COc1ccc2c(c1)c(CC(=O)NS(=O)(=O)c1cc(C(F)(F)F)ccc1C(F)(F)F)cn2C(=O)c1ccc(Cl)cc1 | 1940 | 19.3 | – | –
36 | CCC(=O)Cc1cn(C(=O)O)c2ccc(OC)cc12 | 2400 | 100 | – | –
37 | CCC(=O)Cc1cn(C(=O)OC)c2ccc(OC)cc12 | 22800 | > 100 | – | –
38 | COc1ccc2c(c1)c(C)c(CC(C)(C)C(=O)O)n2C(=O)c1ccc(Cl)cc1 | 120 | 9.82 | – | –
39 | COc1ccc2c(c1)c(C)c(CC(C)C(=O)NS(C)(=O)=O)n2C(=O)c1ccc(Cl)cc1 (configuration not stated) | 5530 | 116 | – | –
40 | COc1ccc2c(c1)c(C)c(CCC(=O)NS(=O)(=O)c1ccc(C)cc1)n2C(=O)c1ccc(Cl)cc1 | 3110 | 12.3 | – | –
41 | COc1ccc2c(c1)c(C)c(CCC(=O)NS(=O)(=O)c1ccc3ccccc3c1)n2C(=O)c1ccc(Cl)cc1 | 2540 | 72.3 | – | –
42 | COc1ccc2c(c1)c(C)c(CCC(=O)NS(=O)(=O)c1ccccc1C)n2C(=O)c1ccc(Cl)cc1 | 3250 | 21.1 | – | –
43 | COc1ccc2c(c1)c(C)c(CCC(=O)NS(=O)(=O)c1ccc(C(F)(F)F)cc1)n2C(=O)c1ccc(Cl)cc1 | 1110 | 33.7 | – | –
44 | COc1ccc2c(c1)c(C)c(CCC(=O)NS(=O)(=O)c1ccc(OC(F)(F)F)cc1)n2C(=O)c1ccc(Cl)cc1 | 2500 | 40.4 | – | –
45 | COc1ccc2c(c1)c(C)c(CCC(=O)NS(=O)(=O)c1ccc(C(C)=O)cc1)n2C(=O)c1ccc(Cl)cc1 | 2650 | 27.4 | – | –
46 | COc1ccc2c(c1)c(C)c(CCC(=O)NS(=O)(=O)c1ccc(C(C)C)cc1)n2C(=O)c1ccc(Cl)cc1 | 4690 | 55.3 | – | –
47 | COc1ccc2c(c1)c1c(n2C(=O)c2cccc(C(F)(F)F)c2)CCC(C(=O)O)C1 (configuration not stated) | 279 | 100 | – | –
48 | COc1ccc2c(c1)c1c(n2C(=O)c2ccc(Cl)cc2)CCC(C(=O)NS(C)(=O)=O)C1 (configuration not stated) | 5070 | > 100 | – | –
49 | COc1ccc2c(c1)c1c(n2C(=O)c2ccc(Cl)cc2)CC(C(=O)O)CC1 (configuration not stated) | 340 | 48.2 | – | –
50 | COC(=O)Cc1c(C)n(C(=O)c2ccc(Cl)cc2)c2ccc(OC)cc12 | 5670 | > 100 | – | –
51 | COc1ccc2c(c1)c(C)c(CC(C)C(=O)O)n2C(=O)c1ccc(Cl)cc1 (racemic) | 290 | 12.3 | – | –
52 | COc1ccc2[nH]c(C)c(CC(=O)O)c2c1 [DESCHLOROBENZOYL INDOMETHACIN] | > 100000 | 100 | – | –
